Measurements: patent US20120041036A1, “SUBSTITUTED ACYLGUANIDINE DERIVATIVES (AS AMENDED)” (priority 2009, published 2012)
Counter-ions that a name gives are not always drawn.

biological target: T1, human 5-HT5A receptor (Homo sapiens, UniProt P47898); test: Test on a human 5-HT5A receptor binding inhibition ([3H]5-CT, membrane from HEK293 cells); details: human 5-HT5A receptor membrane; read-out: Kd value of [3H]5-CT determined from Scatchard analysis
T1 construct: expressed in transfected cells; membrane preparation
Experimental: The ORF (open reading frame; protein coding region) of a human 5-HT5A receptor (Genbank AF498985) was cloned from a human hippocampus cDNA library, and then inserted into a pCR2.1 vector (Invitrogen), and Escherichia coli containing the plasmid was cultured in a large amount. Next, the full-length cDNA sequence of the human 5-HT5A receptor was analyzed, and recombined into a pCDNA3.1 vector (Invitrogen) as an expression vector and cultured in a large amount. HEK293 established cells (ATCC) derived from the human fetal kidney were seeded, the expression plasmid (1 μg) obtained above were added thereto with LIPOFECTAMINE 2000 (Invitrogen; 2 μl), the gene was transfected into HEK293 cells, and the expression cells were screened with a drug-resistant marker, Geneticin (G418 sulfate 500 μg/ml; Kanto Chemical Co., Inc.). Thus prepared recombinant cells which expressed the gene were cultured in a medium containing D-MEM (Dulbecco's modified eagle medium, Sigma), 10% FCS (Fetal calf serum: fetal bovine serum), 1% Pc./Sm (Penicillin/Streptomycin, Invitrogen), and 500 μg/ml G418 for 3 days. These experimental operations followed a manual for gene operation experiment and an instruction appended in a reagent, and the like, such as a known method (Sambrook, J. et al, Molecular Cloning—A Laboratory Manual”, Cold Spring Harbor laboratory, NY, 1989).
HEK293 cells for forced expressions of a human 5-HT5A receptor were cultured in a F500 plate, and scraped with a scraper. After centrifugation, the precipitate was collected, and an incubation buffer (50 mM Tris (HCl) (pH 7.4), 10 mM MgSO4, and 0.5 mM EDTA (ethylenediamine tetraacetic acid)) was added thereto. After homogenization, it was further centrifuged, and the incubation buffer was added to the precipitate, followed by thoroughly suspending. The operation was repeated, and protein concentration was measured, thereby completing preparation of the membrane.
A solution of the compound to be tested and 100 μM 5-CT (5-carboxamidetriptamine) in DMSO was added to a 96-well plate at 2 μl/well, suspended in an incubation buffer, and a membrane from HEK293 cells for forced expressions of a human 5-HT5A receptor prepared at 200 μg/ml was added at 100 μl/well. After incubation at room temperature for 15 minutes, a [^3H]5-CT solution (2 nM [^3H]5-CT, incubation buffer) was added thereto at 100 μl/well.
Separately, 100 μl of the solution was distributed into a liquid scintillation vial, and 2 ml of Aquasol II (registered trademark) was added thereto, followed by stirring. Then, radioactivity was measured by a liquid scintillation counter. It was incubated at 37° C. for 60 minutes. The reaction mixture was sucked into 96-well GF/C filter plate that had been pre-treated with 0.2% polyethyleneimine, and washed six times with an ice-cooled, 50 mM Tris (pH 7.5) buffer. The GF/C filter plate was dried.
Microscint TMPS (registered trademark) was added thereto at 40 μl/well. Radioactivity remaining on the GF/C filter plate was measured by a top counter.
The [^3H]5-CT binding inhibiting activity by the compound to be tested in each experiment was determined as an IC50 value with a radioactivity upon addition of DMSO alone being 0% inhibition, and a radioactivity upon addition of 1 μM 5-CT being 100% inhibition. Separately, Ki values were calculated from the Kd value of the [^3H]5-CT determined from Scatchard analysis, by the following equation.

T1 sequence (P47898 whole entry): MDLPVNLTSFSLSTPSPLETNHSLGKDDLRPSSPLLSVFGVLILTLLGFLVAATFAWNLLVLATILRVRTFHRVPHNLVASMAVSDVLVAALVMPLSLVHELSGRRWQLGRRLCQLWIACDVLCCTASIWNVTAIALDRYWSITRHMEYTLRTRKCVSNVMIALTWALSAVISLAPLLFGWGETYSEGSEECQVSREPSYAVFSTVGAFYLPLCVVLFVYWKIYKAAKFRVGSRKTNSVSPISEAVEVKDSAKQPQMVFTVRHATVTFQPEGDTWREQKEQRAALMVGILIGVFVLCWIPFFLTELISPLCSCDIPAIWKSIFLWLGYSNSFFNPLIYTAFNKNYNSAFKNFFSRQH

| SMILES | Kd [nM] |
| --- | --- |
| NCCc1c[nH]c2ccc(C(N)=O)cc12 [[^3H]5-CT, 5-carboxamidetriptamine, reference compound] | 4.95 |

same assay, conditions: membrane from HEK293 cells expressing human 5-HT5A receptor; Ki calculated from IC50 and Kd of [3H]5-CT

| SMILES | Ki [nM] |
| --- | --- |
| COc1cc(C#N)ccc1-c1c(C#N)ccc2ccc(C(=O)N=C(N)N)cc12 [Example 15] | 30 to 300 |
| N#Cc1ccc2ccc(C(=O)N=C(N)N)cc2c1C1=CCOCC1 [Example 16] | 30 to 300 |
| N#Cc1ccc2ccc(C(=O)N=C(N)N)cc2c1-c1ccncc1Cl [Example 3] | 30 to 300 |
| N#Cc1ccc2ccc(C(=O)N=C(N)N)cc2c1C1CC1 [Example 21] | 30 to 300 |
| N#Cc1ccc2ccc(C(=O)N=C(N)N)cc2c1-c1ccncc1F [Example 4] | 30 to 300 |
| N#Cc1ccc2ccc(C(=O)N=C(N)N)cc2c1-c1c(F)cccc1Cl [Example 1, 8-(2-chloro-6-fluorophenyl)-7-cyano-N-(diaminomethylene)-2-naphthamide hydrochloride] | 4.3 |
| CS(=O)(=O)c1ccc2ccc(C(=O)N=C(N)N)cc2c1-c1c(F)cc(F)cc1F [Example 13] | 30 to 300 |
| N#Cc1ccc2ccc(C(=O)N=C(N)N)cc2c1-c1c(F)cc(CO)cc1F [Example 17] | 30 to 300 |
| N#Cc1cc(F)c(-c2ccncc2)c2cc(C(=O)N=C(N)N)ccc12 [Example 19] | 30 to 300 |
| N#Cc1ccc2ccc(C(=O)N=C(N)N)cc2c1-c1ccccc1 [Example 20] | 1 to 30 |
| CSc1ccc2ccc(C(=O)N=C(N)N)cc2c1-c1c(F)cc(F)cc1F [Example 12] | 1 to 30 |

More lines, now with the values ahead:

| Ki [nM] | SMILES |
| --- | --- |
| 1 to 30 | N#Cc1ccc2ccc(C(=O)N=C(N)N)cc2c1-c1c(F)cc(F)cc1F [Example 2] |
| 1 to 30 | N#Cc1ccc2ccc(C(=O)N=C(N)N)cc2c1-c1ccc(F)cc1F [Example 6] |
| 1 to 30 | N#Cc1ccc2ccc(C(=O)N=C(N)N)cc2c1-c1ccccc1F [Example 10] |
| 1 to 30 | N#Cc1ccc2ccc(C(=O)N=C(N)N)cc2c1-c1ccccc1Cl [Example 9] |
| 1 to 30 | N#Cc1cc(F)c(-c2c(F)cc(F)cc2F)c2cc(C(=O)N=C(N)N)ccc12 [Example 5] |
| 1 to 30 | N#Cc1ccc2ccc(C(=O)N=C(N)N)cc2c1-c1ccc(F)cc1 [Example 14] |
| 1 to 30 | N#Cc1ccc2ccc(C(=O)N=C(N)N)cc2c1-c1c(F)cccc1F [Example 7] |
| 1 to 30 | N#Cc1ccc2ccc(C(=O)N=C(N)N)cc2c1-c1c(F)cncc1F [Example 18] |
| 1 to 30 | COc1cccc(F)c1-c1c(C#N)ccc2ccc(C(=O)N=C(N)N)cc12 [Example 8] |

tested on: hyperactivity caused by MK-801; test: Improvement effect on increase in motion induced by methamphetamine or MK-801 in mice; type: in vivo; details: male ICR mouse; oral dose 0.03 mg/kg; MK-801 0.3 mg/kg i.p.; motion measured 60 minutes; significance P<0.05
Experimental: The improvement effect of compound of formula (I) was evaluated by measuring the quantity of motion by IR irradiation when a compound was administered to a mouse in which hyperactivity was caused by methamphetamine (hereinafter, simply referred to as “MAP”) or MK-801, known as an animal model of schizophrenia.
An animal was taken out of a breeding cage, orally administered with a compound to be tested, and then placed into a cage for breeding. After 30 minutes, the animal was put into a cage for measurement, and the motion with the compound to be tested alone was measured. Further, after 30 to 90 minutes, the animal was taken out, and intraperitoneally administered with a drug for increasing the motion (MAP; 1 mg/kg or MK-801; 0.3 mg/kg, dissolved in a physiological saline, respectively). Then, the motion for a certain period of time (60 minutes) was measured by using a motion measurement device (CompACT AMS from Muromachi Kikai Co., Ltd.) by means of an infrared sensor.
For a normal mouse (a mouse administered with physiological saline) and a mouse administered with a drug for increasing the motion, a Student's T test was performed for evaluation for each interval. For a group administered with the compound to be tested, an assay was performed using a solvent (vehicle) group and a Dunnett's T test. […]

| SMILES | inhibition of hyperactivity (motion) caused by MK-801 |
| --- | --- |
| N#Cc1ccc2ccc(C(=O)N=C(N)N)cc2c1-c1c(F)cccc1Cl [Example 1, 8-(2-chloro-6-fluorophenyl)-7-cyano-N-(diaminomethylene)-2-naphthamide hydrochloride] | significantly inhibited |
